The values below come from patent publication EP0326936A2, “Use of 2-(phenyl-amino)-2-imidazolines in the application of shock therapy” (BOEHRINGER INGELHEIM KG, priority 1988, dated 1989).

The structures appear in SMILES notation.

Assay [1] concerns hämorrhagischen Schock. The assay can be described thus: Second shock model: two-day observation phase, no preparation of the M. cremaster. It is filed as in vivo. The settings on record: for Überlebende: number of survivors, N=15 per compound, Kontrolle 12 of 40. The text has this:
(§1) Die Eignung von Alinidin und anderen Verbindungen der allgemeinen Formel I zur erfindungsgemäßen Anwendung bei der Schocktherapie wurde in tierexperimentellen Untersuchungen an einem Cremaster-Modell bestätigt. Dieses Modell stellt eine etablierte Methode dar, (S. Hergenröder "Mikrozirkulation im hämorrhagischen Schock", Diplomarbeit am Fachbereich Biologie der Joh.-Gutenberg-Universität, Mainz 1987). An diesem Modell werden Einflüsse auf den systemischen Blutdruck, die Herzfrequenz, den daraus errechneten Schockindex sowie wichtige mikrozirkulatorische Parameter, wie Arteriolendurchmesser, die Eryhthrozytenfließgeschwindigkeit und die daraus errechnete Mikroperfusion (Organdurchblutung) und die Überlebensrate bestimmt. Der Versuchsablauf besteht aus einer präparativen Kontrollphase, gefolgt von einer spontanen Entblutung mit einem raschen Blutdruckabfall auf 25 mm Hg, einer isovolämischen intravenösen 10-minütigen Infusion mit physiologischer NaCl-Lösung (Kontrolltiere) bzw. physiologischer NaCl-Lösung mit darin gelösten Wirkstoffen und einer abschließenden Nachbeobachtungsphase (60 - 120 Minuten). Das zweite Modell unterscheidet sich durch eine zweitägige Nachbeobachtungsphase ohne Präparation des M. cremaster.

The subject of assay [2] is hämorrhagischen Schock. The assay can be described thus: Cremaster model of haemorrhagic shock (bleeding to 25 mm Hg, 10-minute isovolaemic i.v. infusion, 60-120 min observation). It is filed as in vivo. The settings on record: Alinidin 1 mg/kg, N=6.
Excerpt: as §1, with “cremaster. […]” for “cremaster.”

As for `CCc1cccc(CC)c1N=C1NCCN1` [A, 2-[2,6-Diethylphenylimino]imidazolidin], the Überlebende in the assay with hämorrhagischen Schock [1] was 10.

On to `CC#CCN(C1=NCCN1)c1c(Cl)cccc1Cl` [B, 2-[N-2,6-Dichlorphenyl-N-2-butinylamino]imidazolin-(2)], for which the Überlebende in the assay with hämorrhagischen Schock [1] is 10.

For `C=CCN(C1=NCCN1)c1c(Cl)cccc1Cl` [C, 2-[N-2,6-Dichlorphenyl-N-allylamino]imidazolin-(2)], the Überlebensrate in the assay with hämorrhagischen Schock [2] (NaCl control group 4 of 20 animals surviving after 60 minutes) came out at 100%. For the same molecule, the “systemische, insbesondere mikrozirkulatorische Parameter” value in the assay on hämorrhagischen Schock [2] (effects in NaCl control group small and short-lived) is reported as “Erholung”. For the same molecule, in the assay with hämorrhagischen Schock [1], the Überlebende was determined as 13. The “überlebten (Tiere)” value in the assay with hämorrhagischen Schock [1] (survivors out of 15 pretreated animals) turned out to be 13.
